ChEMBL document CHEMBL1137661, “Interaction study of the combined use of paroxetine and fosamprenavir-ritonavir in healthy subjects” (Antimicrob Agents Chemother, 2007)

Experiments:
[1] = AUC (0 to 12 hrs) in human at 100 mg, po bid for 10 days pretreated with paroxetin at 20 mg, po qd for 10 days followed by 16 days washout period then coadministered with paroxetin at 20 mg, po qd and fosamprenavir at 700 mg, po bid for 10 days; assay type: ADME, organism-based; parameters: time < 12 hr, dose 100 mg, route oral; conditions: plasma
clinical = conditions: human, in vivo, po
Description: Half life in human at 100 mg, po bid for 10 days pretreated with paroxetin at 20 mg, po qd for 10 days followed by 16 days washout period then coadministered with paroxetin at 20 mg, po qd and fosamprenavir at 700 mg, po bid for 10 days

Homo sapiens [2] = assay: Half life in human assessed as amprenavir levels at 700 mg, po bid for 10 days pretreated with paroxetin at 20 mg, po qd for 10 days followed by 16 days washout period then coadministered with paroxetin at 20 mg, po qd and ritonavir at 100 mg, po bid for 10 days; assay type: ADME, organism-based; conditions: in vivo
Homo sapiens [3] = assay: AUC (0 to 12 hrs) in human assessed as amprenavir levels at 700 mg, po bid for 10 days pretreated with paroxetin at 20 mg, po qd for 10 days followed by 16 days washout period then coadministered with paroxetin at 20 mg, po qd and ritonavir at 100 mg, po bid for 10 days; assay type: ADME, organism-based, Plasma; parameters: time < 12 hr, dose 700 mg, route oral; conditions: in vivo
[4] = Apparent volume of distribution in human; assay type: ADME, organism-based; conditions: in vivo, read-out: Vz
[5] = Half life in human at 20 mg, po qd for 10 days; assay type: ADME, organism-based; conditions: in vivo
Homo sapiens [6] = assay: Decrease in serotonin concentration in human platelets at 20 mg, po qd for 10 days relative to control; assay type: functional; parameters: scale not given: the % may be the effect or the level left
[7] = Half life in human at 20 mg, po qd for 10 days followed by 16 days washout period and treated with 20 mg, po qd for 10 days coadministered with fosamprenavir at 700 mg, po bid and ritonavir at 100 mg, po bid; assay type: ADME, organism-based; conditions: in vivo
[8] = Apparent oral clearance in human at 20 mg, po qd for 10 days; assay type: ADME, organism-based; conditions: in vivo
[9] = AUC (0 to 24 hrs) in human at 20 mg, po qd for 10 days; assay type: ADME, organism-based; parameters: time < 24 hr, dose 20 mg, route oral; conditions: plasma
Homo sapiens [10] = assay: Toxicity in human assessed as serious adverse events at 20 mg, po qd for 10 days followed by 16 days washout period and treated with 20 mg, po qd for 10 days coadministered with fosamprenavir at 700 mg, po bid and ritonavir at 100 mg, po bid; assay type: organism-based; conditions: in vivo
Homo sapiens [11] = assay: Decrease in serotonin concentration in human platelets at 20 mg, po qd for 10 days followed by 16 days washout period and treated with 20 mg, po qd for 10 days coadministered with fosamprenavir at 700 mg, po bid and ritonavir at 100 mg, po bid relative to control; assay type: functional; parameters: scale not given: the % may be the effect or the level left
[12] = Cmax in human at 20 mg, po qd for 10 days; assay type: ADME, organism-based; parameters: dose 20 mg, route oral; conditions: in vivo
[13] = Cmax in human at 20 mg, po qd for 10 days followed by 16 days washout period and treated with 20 mg, po qd for 10 days coadministered with fosamprenavir at 700 mg, po bid and ritonavir at 100 mg, po bid; assay type: ADME, organism-based; parameters: dose 20 mg, route oral; conditions: in vivo
[14] = AUC (0 to 24 hrs) in human at 20 mg, po qd for 10 days followed by 16 days washout period and treated with 20 mg, po qd for 10 days coadministered with fosamprenavir at 700 mg, po bid and ritonavir at 100 mg, po bid; assay type: ADME, organism-based; parameters: dose 20 mg, time < 24 hr, route oral; conditions: plasma
Homo sapiens [15] = assay: Toxicity in human assessed as serious adverse events at 20 mg, po qd for 10 days; assay type: organism-based; conditions: in vivo, 240 h

Which AUC at 12 h [1] does the source give for `CC(C)c1nc(CN(C)C(=O)N[C@H](C(=O)N[C@@H](Cc2ccccc2)C[C@H](O)[C@H](Cc2ccccc2)NC(=O)OCc2cncs2)C(C)C)cs1` [RITONAVIR] here?
Its AUC at 12 h is 5.1 µg·h/mL.

What about the half-life (clinical) of the same compound?
The half-life was 4.1 h.

For `CC(C)CN(C[C@@H](O)[C@H](Cc1ccccc1)NC(=O)O[C@H]1CCOC1)S(=O)(=O)c1ccc(N)cc1` [AMPRENAVIR], which t1/2 (Homo sapiens [2]) is on record?
The t1/2 was 11.5 h.

And the AUC (Homo sapiens [3])?
The AUC was 44.1 µg·h/mL.

Which Vd [4] does the source give for `Fc1ccc([C@@H]2CCNC[C@H]2COc2ccc3c(c2)OCO3)cc1` [PAROXETINE] here?
Its Vd is 8.7 L/kg.

And the half-life [5]?
The half-life was 21.1 h.

What about the Activity (Homo sapiens [6]) of the same compound?
The Activity was 87%.

And the half-life [7]?
Its half-life is 15.9 h.

And the CL/F [8]?
Its CL/F is 552 mL/min.

And the AUC at 24 h [9]?
The AUC at 24 h was 0.59 µg·h/mL.

What about the Activity (Homo sapiens [10]) of the same compound?
Its Activity is “Non-toxic”.

And the Activity (Homo sapiens [11])?
Its Activity is 81%.

And the Cmax [12]?
Its Cmax is 0.034 µg/mL.

What about the Cmax [13] of the same compound?
The Cmax was 0.017 µg/mL.

What about the AUC at 24 h [14] of the same compound?
Its AUC at 24 h is 0.27 µg·h/mL.

And the Activity (Homo sapiens [15])?
Its Activity is “Non-toxic”.
